In ChEMBL document CHEMBL2034982, “Synthesis of new 2-galactosylthiazolidine-4-carboxylic acid amides. Antitumor evaluation against melanoma and breast cancer cells” (Eur J Med Chem, 2012):
Calls of active or inactive are those of the source. The calls are words filed in the database; no cut-off is given here.

Experiments:
[1] = tested on: A-375; test: Selectivity index, ratio of IC50 for human HFF1 cells to IC50 for human A375 cells; assay type: functional
[2] = tested on: MCF7; test: Cytotoxicity against human MCF7 cells after 48 hrs by MTT assay; assay type: functional, cell-based; conditions: for IC50: MCF7, 48 h
[3] = Cytotoxicity against human HFF1 cells after 48 hrs by MTT assay; assay type: cell-based; conditions: HFF-1, 48 h
[4] = tested on: MCF7; test: Selectivity index, ratio of IC50 for human HFF1 cells to IC50 for human MCF7 cells; assay type: functional
[5] = tested on: A-375; test: Cytotoxicity against human A375 cells after 48 hrs by MTT assay; assay type: functional, cell-based; conditions: for IC50: A-375, 48 h
[6] = tested on: A-375; test: Induction of apoptosis in human A375 cells assessed as increase in ratio of Bax/Bcl2 at 30 uM after 48 hrs by fluorescence assay relative to control; assay type: functional, cell-based
[7] = tested on: A-375; test: Induction of apoptosis in human A375 cells assessed as increase in ratio of Bax/Bcl2 at 17 uM after 48 hrs by fluorescence assay relative to control; assay type: functional
[8] = tested on: A-375; test: Cytotoxicity against human A375 cells after 48 hrs by annexin V/propidium iodide staining based FACS flow cytometry; assay type: functional, cell-based
[9] = tested on: A-375; test: Cytotoxicity against human A375 cells assessed as increase in late apoptotic cells at 17 to 30 uM after 48 hrs by annexin V/propidium iodide staining based FACS flow cytometry; assay type: functional, cell-based
[10] = tested on: A-375; test: Cell cycle arrest in human A375 cells assessed as accumulation at G2 phase at 17 uM after 48 hrs using propidium iodide staining by FACS flow cytometry (reference value: 10.6 +/- 1.2%); assay type: functional
[11] = tested on: A-375; test: Cell cycle arrest in human A375 cells assessed as accumulation at sub G1 phase at 17 uM after 48 hrs using propidium iodide staining by FACS flow cytometry; assay type: functional
[12] = tested on: A-375; test: Cytotoxicity against human A375 cells assessed as decrease in viable cells at 17 to 30 uM after 48 hrs by annexin V/propidium iodide staining based FACS flow cytometry; assay type: functional, cell-based
[13] = tested on: A-375; test: Cell cycle arrest in human A375 cells assessed as accumulation at sub G1 phase at 30 uM after 48 hrs using propidium iodide staining by FACS flow cytometry; assay type: functional
[14] = tested on: A-375; test: Cell cycle arrest in human A375 cells assessed as accumulation at S phase at 17 uM after 48 hrs using propidium iodide staining by FACS flow cytometry (reference value: 23.0 +/- 3.3%); assay type: functional
[15] = tested on: A-375; test: Cell cycle arrest in human A375 cells assessed as accumulation at G1 phase at 30 uM after 48 hrs using propidium iodide staining by FACS flow cytometry (reference value: 66.4 +/- 4.1%); assay type: functional
[16] = tested on: A-375; test: Cell cycle arrest in human A375 cells assessed as accumulation at G2 phase at 30 uM after 48 hrs using propidium iodide staining by FACS flow cytometry (reference value: 10.6 +/- 1.2%); assay type: functional
[17] = tested on: A-375; test: Induction of apoptosis in human A375 cells after 48 hrs using propidium iodide staining by FACS flow cytometry; assay type: functional, cell-based
[18] = tested on: A-375; test: Cell cycle arrest in human A375 cells assessed as accumulation at G1 phase at 17 uM after 48 hrs using propidium iodide staining by FACS flow cytometry (reference value: 66.4 +/- 4.1%); assay type: functional
[19] = tested on: A-375; test: Cytotoxicity against human A375 cells assessed as increase in apoptotic cells at 17 to 30 uM after 48 hrs by annexin V/propidium iodide staining based FACS flow cytometry; assay type: functional, cell-based
[20] = tested on: A-375; test: Cytotoxicity against human A375 cells assessed as increase in necrotic cells at 17 to 30 uM after 48 hrs by annexin V/propidium iodide staining based FACS flow cytometry; assay type: functional, cell-based
[21] = tested on: A-375; test: Cell cycle arrest in human A375 cells assessed as accumulation at S phase at 30 uM after 48 hrs using propidium iodide staining by FACS flow cytometry (reference value: 23.0 +/- 3.3%); assay type: functional
[22] = tested on: HCC1806; test: Cytotoxicity against human HCC1806 cells after 48 hrs by MTT assay; assay type: functional, cell-based; conditions: HCC1806, 48 h

| Compound | Ratio IC50 [1] | Activity [2] | IC50 [2] | IC50 [3] | Ratio IC50 [4] | Activity [5] | IC50 [5] | IC50 [22] | other results |
| --- | --- | --- | --- | --- | --- | --- | --- | --- | --- |
| CCCCCCCCCCCCCCCCCCNC(=O)C1CSC([C@H](O)[C@@H](OC(C)=O)[C@@H](OC(C)=O)[C@@H](COC(C)=O)OC(C)=O)N1C(C)=O (mixture of isomers) | 1.1 | Dose-dependent effect | 7.7 µM | 27.2 µM | 3 | Dose-dependent effect | 20.5 µM | – | – |
| CN(C)/N=N/c1[nH]cnc1C(N)=O [DACARBAZINE] | – | – | – | – | – | – | > 500 µM | – | – |
| CCCCCCCCCCCCCCCCNC(=O)C1CSC([C@H](O)[C@@H](OC(C)=O)[C@@H](OC(C)=O)[C@@H](COC(C)=O)OC(C)=O)N1C(C)=O (mixture of isomers) | 1.8 | Dose-dependent effect | 5.8 µM | 29.8 µM | 5.8 | Dose-dependent effect | 17 µM | 12.6 µM | Activity [6]: Active; Ratio [7]: 2; Activity [8]: Dose-dependent effect; Activity [9]: Active; Activity [10]: 16%; Activity [11]: 5.6%; Activity [12]: Active; Activity [13]: 16.6%; Activity [14]: 23.6%; Activity [15]: 43.6%; Activity [16]: 10.2%; Activity [17]: Dose-dependent effect; Activity [18]: 60.6%; Activity [19]: Active; Activity [20]: Active; Activity [21]: 46% |
| CCCCCCCCCCCCCCNC(=O)C1CSC([C@H](O)[C@@H](OC(C)=O)[C@@H](OC(C)=O)[C@@H](COC(C)=O)OC(C)=O)N1C(C)=O (mixture of isomers) | 1 | Dose-dependent effect | 8.4 µM | 19.6 µM | 2.2 | Dose-dependent effect | 19.6 µM | – | – |
| CC(=O)O[C@@]12CO[C@@H]1C[C@H](O)[C@@]1(C)C(=O)[C@H](O)C3=C(C)[C@@H](OC(=O)[C@H](O)[C@@H](NC(=O)OC(C)(C)C)c4ccccc4)C[C@@](O)([C@@H](OC(=O)c4ccccc4)[C@H]21)C3(C)C [DOCETAXEL] | – | – | 11.9 µM | – | – | – | – | 8.4 µM | – |
| CCCCCCCCCCCCNC(=O)C1CSC([C@H](O)[C@@H](OC(C)=O)[C@@H](OC(C)=O)[C@@H](COC(C)=O)OC(C)=O)N1C(C)=O (mixture of isomers) | 0.22 | Dose-dependent effect | 7.5 µM | 2.9 µM | 0.91 | Dose-dependent effect | 23.1 µM | – | – |
